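Method: 48-hour compound exposure of cells in 96-well plates, five concentrations, linear interpolation of endpoints. At the GI50, growth is halved. The concentration for full growth arrest is given as TGI.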
Experiments:
Test in all cases: growth of human tumour cells (NCI), 48 h
[1] = tested on: OVCAR-4 ovarian
[2] = tested on: HCT-116 colon
[3] = tested on: DU-145 prostate
[4] = tested on: SR leukemia
[5] = tested on: RXF 393 renal
[6] = tested on: K-562 leukemia
[7] = tested on: SNB-19 CNS
[8] = tested on: T-47D breast
[9] = tested on: PC-3 prostate
[10] = tested on: SF-295 CNS
[11] = tested on: SK-MEL-5 melanoma
[12] = tested on: 786-0 renal
[13] = tested on: OVCAR-5 ovarian
[14] = tested on: IGROV1 ovarian
[15] = tested on: HL-60(TB) leukemia
[16] = tested on: HOP-92 NSCLC
[17] = tested on: KM12 colon
[18] = tested on: HT29 colon
[19] = tested on: SW-620 colon
[20] = tested on: HCT-15 colon
[21] = tested on: HCC-2998 colon
[22] = tested on: HOP-62 NSCLC
[23] = tested on: MCF7 breast
[24] = tested on: UACC-62 melanoma
[25] = tested on: CCRF-CEM leukemia
[26] = tested on: UO-31 renal
[27] = tested on: NCI-H522 lung
[28] = tested on: OVCAR-8 ovarian
[29] = tested on: HS 578T breast
[30] = tested on: COLO 205 colon
[31] = tested on: SK-MEL-2 melanoma
[32] = tested on: EKVX NSCLC
[33] = tested on: UACC-257 melanoma
[34] = tested on: U251 CNS
[35] = tested on: NCI-H226 lung
[36] = tested on: RPMI-8226 leukemia
[37] = tested on: SF-539 CNS
[38] = tested on: NCI-H23 lung
[39] = tested on: BT-549 breast
[40] = tested on: NCI-H460 lung
[41] = tested on: ACHN renal
[42] = tested on: SNB-75 CNS
[43] = tested on: M14 melanoma
[44] = tested on: A549 NSCLC
[45] = tested on: TK-10 renal
[46] = tested on: OVCAR-3 ovarian
[47] = tested on: MDA-MB-435
[48] = tested on: CAKI-1 renal
[49] = tested on: A498 renal
[50] = tested on: NCI/ADR-RES ovarian
[51] = tested on: MOLT-4 leukemia
[52] = tested on: SF-268 CNS
[53] = tested on: SK-MEL-28 melanoma
[54] = tested on: LOX IMVI melanoma
[55] = tested on: MALME-3M melanoma
[56] = tested on: MDA-MB-231 breast
[57] = tested on: SK-OV-3 ovarian
[58] = tested on: SN12C renal

SMILES: O=C(O)c1nc2ccccc2nc1Nc1ccc(F)cc1
- TGI [1]: > 100 µM
- TGI [2]: > 100 µM
- TGI [3]: > 100 µM
- TGI [4]: 91.1 µM
- TGI [5]: 51.8 µM
- TGI [6]: 94.1 µM
- TGI [7]: > 100 µM
- TGI [8]: > 100 µM
- TGI [9]: 90.7 µM
- TGI [10]: 58.5 µM
- TGI [11]: 54.2 µM
- TGI [12]: > 100 µM
- TGI [13]: > 100 µM
- TGI [14]: > 100 µM
- TGI [15]: 78.8 µM
- TGI [16]: 85.9 µM
- TGI [17]: > 100 µM
- TGI [18]: > 100 µM
- TGI [19]: > 100 µM
- TGI [20]: 89.8 µM
- TGI [21]: > 100 µM
- TGI [22]: > 100 µM
- TGI [23]: 74.8 µM
- TGI [24]: 77.6 µM
- TGI [25]: 79.9 µM
- TGI [26]: > 100 µM
- TGI [27]: 82.4 µM
- TGI [28]: > 100 µM
- TGI [29]: > 100 µM
- TGI [30]: 76.2 µM
- TGI [31]: 76.5 µM
- TGI [32]: > 100 µM
- TGI [33]: > 100 µM
- TGI [34]: > 100 µM
- TGI [35]: > 100 µM
- TGI [36]: > 100 µM
- TGI [37]: 60 µM
- TGI [38]: > 100 µM
- TGI [39]: > 100 µM
- TGI [40]: > 100 µM
- TGI [41]: > 100 µM
- TGI [42]: 81.8 µM
- TGI [43]: > 100 µM
- TGI [44]: > 100 µM
- TGI [45]: > 100 µM
- TGI [46]: 77.5 µM
- TGI [47]: > 100 µM
- TGI [48]: 63.4 µM
- TGI [49]: > 100 µM
- TGI [50]: > 100 µM
- TGI [51]: > 100 µM
- TGI [52]: 99.2 µM
- TGI [53]: > 100 µM
- TGI [54]: > 100 µM
- TGI [55]: > 100 µM

SMILES: N#CSCc1c(Cl)cccc1Cl
- GI50 [1]: 5.82 µM
- TGI [1]: > 100 µM
- GI50 [2]: 2.92 µM
- TGI [2]: > 39.3 µM
- GI50 [3]: 2.74 µM
- TGI [3]: 5.71 µM
- TGI [4]: > 24 µM
- GI50 [5]: 2.54 µM
- TGI [5]: 7.24 µM
- GI50 [6]: 0.359 µM
- TGI [6]: 16.3 µM
- GI50 [7]: 32.3 µM
- TGI [7]: > 100 µM
- GI50 [8]: 13.3 µM
- TGI [8]: > 96.1 µM
- GI50 [9]: 8.73 µM
- TGI [9]: > 100 µM
- GI50 [10]: 16.2 µM
- TGI [10]: > 91.4 µM
- GI50 [11]: 4.5 µM
- TGI [11]: 21.2 µM
- GI50 [56]: 3.43 µM
- TGI [56]: > 63.5 µM
- GI50 [12]: 5.57 µM
- TGI [12]: > 100 µM
- GI50 [13]: 7.41 µM
- TGI [13]: > 100 µM
- GI50 [14]: 2.69 µM
- TGI [14]: 7.2 µM
- GI50 [16]: 1.18 µM
- TGI [16]: > 30 µM
- GI50 [18]: 3.75 µM
- TGI [18]: > 100 µM
- GI50 [19]: 0.76 µM
- TGI [19]: > 46.3 µM
- GI50 [20]: 2.96 µM
- TGI [20]: > 100 µM
- GI50 [21]: 4.19 µM
- TGI [21]: 45.2 µM
- GI50 [22]: 36.6 µM
- TGI [22]: > 100 µM
- GI50 [23]: 3.27 µM
- TGI [23]: > 100 µM
- GI50 [57]: 34 µM
- TGI [57]: > 100 µM
- GI50 [58]: 4.5 µM
- TGI [58]: > 100 µM
- GI50 [24]: 5.18 µM
- TGI [24]: > 67.4 µM
- GI50 [25]: 0.323 µM
- TGI [25]: > 43.8 µM
- GI50 [26]: 4.41 µM
- TGI [26]: 27.6 µM
- GI50 [27]: 2.07 µM
- TGI [27]: 6.33 µM
- GI50 [28]: 4.8 µM
- TGI [28]: > 100 µM
- GI50 [29]: 3.04 µM
- TGI [29]: 8.26 µM
- GI50 [30]: 2.34 µM
- TGI [30]: 4.97 µM
- GI50 [31]: 4.02 µM
- TGI [31]: > 100 µM
- GI50 [32]: 3.94 µM
- TGI [32]: > 27.4 µM
- GI50 [33]: 10.9 µM
- TGI [33]: > 81.3 µM
- GI50 [34]: 3.83 µM
- TGI [34]: > 100 µM
- GI50 [35]: 12.6 µM
- TGI [35]: > 100 µM
- GI50 [36]: < 0.0506 µM
- TGI [36]: 1.33 µM
- GI50 [37]: 3.45 µM
- TGI [37]: > 35.5 µM
- GI50 [38]: 5.41 µM
- TGI [38]: > 100 µM
- GI50 [39]: 2.31 µM
- TGI [39]: 7.48 µM
- GI50 [40]: 4.29 µM
- TGI [40]: > 53.4 µM
- GI50 [41]: 5.14 µM
- TGI [41]: > 100 µM
- GI50 [42]: 20.2 µM
- TGI [42]: > 100 µM
- GI50 [43]: 3.05 µM
- TGI [43]: > 100 µM
- GI50 [44]: 3.31 µM
- TGI [44]: > 100 µM
- GI50 [45]: 4.51 µM
- TGI [45]: > 29.2 µM
- GI50 [46]: 2.39 µM
- TGI [46]: 5.18 µM
- GI50 [47]: 2.11 µM
- TGI [47]: 5.63 µM
- GI50 [48]: 0.309 µM
- TGI [48]: > 20.2 µM
- GI50 [49]: 4.76 µM
- TGI [49]: 19.6 µM
- GI50 [50]: 6.25 µM
- TGI [50]: > 100 µM
- GI50 [52]: 4.9 µM
- TGI [52]: > 65.5 µM
- GI50 [53]: 9.16 µM
- TGI [53]: > 100 µM
- GI50 [54]: 3.55 µM
- TGI [54]: > 100 µM
- GI50 [55]: 8.71 µM
- TGI [55]: > 100 µM
